Source: ChEMBL document CHEMBL1201862, “PubChem BioAssay data set” (2004)
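Five concentrations, 48 hours, 96-well plates. GI50 is the concentration that inhibits growth by half.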 Calls of active or inactive are those of the source. Cut-off read from the data, not from the text of the source: active = GI50 up to about 1.1 µM and inactive = higher.

What was measured:
Assay in all cases: growth of human tumour cells (NCI), 48 h
SNB-75 = system: SNB-75
SK-MEL-28 = system: SK-MEL-28
HT-29 = system: HT-29
UO-31 = system: UO-31
CCRF-CEM = system: CCRF-CEM
K562 = system: K562
OVCAR-3 = system: OVCAR-3
OVCAR-4 = system: OVCAR-4
ACHN = system: ACHN
NCI-H522 = system: NCI-H522
NCI-H23 = system: NCI-H23
SN12C = system: SN12C
A498 = system: A498
HL-60 = system: HL-60
HCC 2998 = system: HCC 2998
KM12 = system: KM12
EKVX = system: EKVX

Measured: GI50

CCOC(=O)C1=C(Nc2ccc(Cl)cc2Cl)OC/C1=N\NS(=O)(=O)c1ccc(C)cc1
inactive: SNB-75 > 100 µM | SK-MEL-28 > 100 µM | HT-29 > 100 µM | UO-31 > 100 µM | CCRF-CEM > 100 µM | K562 > 100 µM | OVCAR-3 41.2 µM | OVCAR-4 > 100 µM | ACHN > 100 µM | NCI-H522 > 100 µM | NCI-H23 > 100 µM | SN12C > 100 µM | A498 > 100 µM | HL-60 > 100 µM | HCC 2998 > 100 µM | KM12 > 100 µM | EKVX 91.6 µM

Cc1cccc(C(C)(C)C)c1NC(=O)CCc1nnc(S)[nH]1
inactive: SNB-75 > 100 µM | SK-MEL-28 > 100 µM | HT-29 > 100 µM | UO-31 > 100 µM | CCRF-CEM > 100 µM | K562 > 100 µM | OVCAR-3 > 100 µM | OVCAR-4 > 100 µM | ACHN > 100 µM | NCI-H522 > 100 µM | NCI-H23 > 100 µM | SN12C > 100 µM | A498 > 100 µM | HL-60 > 100 µM | HCC 2998 > 100 µM | KM12 > 100 µM

O=C(CC(=O)n1nc(-c2ccccc2)c(/N=N/c2ccc(Cl)cc2)c1-c1ccccc1)Nc1ccc(Cl)cc1
inactive: SNB-75 > 50.5 µM | SK-MEL-28 > 100 µM | HT-29 > 43.3 µM | UO-31 > 100 µM | CCRF-CEM > 43.5 µM | K562 > 41.7 µM | OVCAR-3 > 100 µM | OVCAR-4 > 100 µM | ACHN > 100 µM | NCI-H522 > 100 µM | NCI-H23 > 100 µM | SN12C > 100 µM | A498 > 100 µM | HL-60 > 100 µM | HCC 2998 > 100 µM | KM12 48.6 µM | EKVX > 100 µM

N#CCCc1nc2ccc(Br)cc2c(=O)n1-c1ccc(O)c([N+](=O)[O-])c1
inactive: SNB-75 26.7 µM | SK-MEL-28 19.3 µM | HT-29 27.7 µM | UO-31 25.6 µM | CCRF-CEM 19.7 µM | K562 23.9 µM | OVCAR-3 18.7 µM | OVCAR-4 20.5 µM | ACHN 30.3 µM | NCI-H522 15.8 µM | NCI-H23 20.8 µM | SN12C 19 µM | A498 47.3 µM | HL-60 17.2 µM | HCC 2998 18.6 µM | KM12 18.5 µM | EKVX 25.5 µM

Cc1cc(Cl)cc2c1NC(=O)C2(O)C(C)C(=O)c1ccc(Cl)cc1 (stereo not drawn)
inactive: SNB-75 > 59.3 µM | SK-MEL-28 > 62.1 µM | HT-29 > 83.2 µM | UO-31 > 100 µM | CCRF-CEM 30.2 µM | K562 > 58.9 µM | OVCAR-3 49.9 µM | OVCAR-4 21.8 µM | ACHN > 100 µM | NCI-H522 39.9 µM | NCI-H23 > 72.1 µM | SN12C > 74.1 µM | A498 > 57.7 µM | HL-60 3.15 µM | HCC 2998 > 100 µM | KM12 99.1 µM | EKVX > 81.5 µM

CCOC1=CP(=O)(OCC)CC(C)=C1Cl (stereo not drawn)
inactive: SNB-75 30.4 µM | SK-MEL-28 > 100 µM | HT-29 > 100 µM | UO-31 > 100 µM | CCRF-CEM > 100 µM | K562 > 100 µM | OVCAR-3 > 100 µM | ACHN > 100 µM | NCI-H522 > 100 µM | NCI-H23 > 100 µM | SN12C > 100 µM | A498 > 100 µM | HL-60 > 100 µM | HCC 2998 > 100 µM | KM12 > 100 µM | EKVX > 100 µM

O=C(O)CCNCCCNCCC(=O)O
inactive: SNB-75 66.8 µM | SK-MEL-28 > 100 µM | HT-29 > 100 µM | CCRF-CEM > 100 µM | K562 > 100 µM | OVCAR-3 > 100 µM | OVCAR-4 > 100 µM | ACHN > 100 µM | NCI-H522 > 100 µM | NCI-H23 > 100 µM | SN12C > 100 µM | A498 > 100 µM | HL-60 > 100 µM | HCC 2998 > 100 µM | KM12 > 100 µM | EKVX > 100 µM

Cc1nc2c(o1)/C(=N\c1ccccc1)c1ccccc1/C2=N/c1ccccc1
inactive: SNB-75 61.8 µM | HT-29 94.2 µM | UO-31 73.6 µM | CCRF-CEM 58.2 µM | K562 33.8 µM | OVCAR-3 26.6 µM | OVCAR-4 58.7 µM | ACHN 53.6 µM | NCI-H522 33 µM | NCI-H23 49.2 µM | SN12C 63.4 µM | A498 > 100 µM | HL-60 > 100 µM | HCC 2998 > 100 µM | KM12 85.5 µM | EKVX 79.1 µM

Cc1ccccc1C(=O)c1c(O)c2c(c(O)c1Br)CCCC2
inactive: SNB-75 18.7 µM | HT-29 27.9 µM | UO-31 17.5 µM | K562 21.1 µM | OVCAR-3 13.8 µM | OVCAR-4 14.9 µM | ACHN 17.9 µM | NCI-H522 10.5 µM | NCI-H23 26.2 µM | SN12C 18.1 µM | A498 22.1 µM | HL-60 5.07 µM | HCC 2998 19.5 µM | KM12 16.6 µM | EKVX 17.6 µM

C=C1CCC23CC(CC[C@@H]2[C@@]12C[C@@H](c1ccoc1)OC2=O)OC3=O (stereo partly drawn)
inactive: HT-29 > 100 µM | UO-31 > 100 µM | CCRF-CEM 63 µM | K562 > 100 µM | OVCAR-3 > 100 µM | OVCAR-4 > 100 µM | ACHN > 100 µM | NCI-H522 > 100 µM | NCI-H23 > 100 µM | SN12C > 100 µM | A498 > 100 µM | HL-60 > 100 µM | HCC 2998 > 100 µM | KM12 > 100 µM | EKVX > 100 µM

Cc1cc(O)c2c(c1)C(=O)c1cc(O)cc(O)c1C2=O [EMODIN]
inactive: SNB-75 32.6 µM | SK-MEL-28 25.4 µM | HT-29 33.7 µM | CCRF-CEM > 61.8 µM | OVCAR-4 30.6 µM | ACHN 18.6 µM | NCI-H522 27.4 µM | NCI-H23 14.9 µM | SN12C 20.5 µM | A498 21.3 µM | HL-60 26.9 µM | HCC 2998 31.3 µM | KM12 20.5 µM

CS/C(=N\C(=S)N(C)C)N(c1ccccc1)c1nc(N(C)C)s[s+]1
inactive: SNB-75 3.18 µM | SK-MEL-28 2.21 µM | HT-29 2.67 µM | UO-31 27.9 µM | CCRF-CEM 1.88 µM | K562 2.56 µM | OVCAR-3 10.8 µM | OVCAR-4 12.2 µM | ACHN 23.8 µM | NCI-H522 1.47 µM | NCI-H23 12.4 µM | SN12C 13.1 µM | A498 1.9 µM | HL-60 1.61 µM | HCC 2998 11.9 µM | KM12 3.65 µM | EKVX 16 µM

COC(=O)C1CCC[C@H]2C(CO)=C(C)C(=O)[C@@H]12 (stereo partly drawn)
inactive: SNB-75 > 100 µM | SK-MEL-28 > 100 µM | HT-29 > 100 µM | UO-31 > 100 µM | CCRF-CEM > 100 µM | K562 > 100 µM | OVCAR-4 > 100 µM | ACHN > 100 µM | NCI-H522 > 100 µM | NCI-H23 > 100 µM | SN12C > 100 µM | A498 > 100 µM | HL-60 > 100 µM | HCC 2998 > 100 µM | KM12 > 100 µM | EKVX > 100 µM

N#C/N=C(/N)NCO
inactive: SNB-75 > 100 µM | SK-MEL-28 > 100 µM | HT-29 > 64.1 µM | UO-31 > 100 µM | CCRF-CEM > 100 µM | K562 > 76 µM | OVCAR-3 > 100 µM | OVCAR-4 > 100 µM | ACHN > 100 µM | NCI-H522 > 100 µM | NCI-H23 > 100 µM | SN12C > 100 µM | A498 > 100 µM | HL-60 > 100 µM | HCC 2998 > 100 µM | KM12 > 40 µM | EKVX > 100 µM

CC1(c2cc3c(cc2Br)OCO3)SCCCS1
inactive: SNB-75 40.6 µM | SK-MEL-28 78 µM | HT-29 32.1 µM | UO-31 24.2 µM | CCRF-CEM 32.1 µM | K562 31 µM | OVCAR-3 38.4 µM | OVCAR-4 36.3 µM | ACHN 41.4 µM | NCI-H522 1.84 µM | NCI-H23 13.3 µM | SN12C 39.3 µM | A498 58.5 µM | HL-60 25.1 µM | HCC 2998 16.4 µM | KM12 51.4 µM | EKVX 77.1 µM

CCOC(=O)C1=C(C)N(NC(N)=O)C(C)(O)C12CCOC2=O (stereo not drawn)
inactive: SNB-75 > 100 µM | SK-MEL-28 > 100 µM | HT-29 > 100 µM | UO-31 > 100 µM | K562 > 100 µM | OVCAR-3 > 100 µM | OVCAR-4 > 100 µM | ACHN > 100 µM | NCI-H522 > 100 µM | SN12C > 100 µM | A498 > 100 µM | HL-60 > 100 µM | HCC 2998 > 100 µM | KM12 > 100 µM | EKVX > 100 µM

N#CC(C#N)=Cc1ccc(C(O)P(=O)(O)O)cc1 (stereo not drawn)
inactive: SK-MEL-28 > 100 µM | HT-29 > 100 µM | UO-31 > 100 µM | CCRF-CEM 71.8 µM | K562 69.2 µM | OVCAR-3 > 100 µM | OVCAR-4 > 100 µM | ACHN > 100 µM | NCI-H522 56.6 µM | NCI-H23 > 100 µM | SN12C > 100 µM | A498 > 100 µM | HL-60 93.5 µM | HCC 2998 > 100 µM | KM12 > 100 µM | EKVX > 100 µM
